# According to patent US8344008B2 (Janssen Pharmaceutica NV, priority 2007, dated 2013):
# Counter-ions that a name gives are not always drawn.
# Target: T1, recombinant human LTA4 hydrolase (rhLTA4H) (Homo sapiens, UniProt P09960)
# T1 construct: made in house; host or cells: Spodoptera frugiperda (Sf-9) cells, baculovirus (pFastBac1)
# T1 sequence (P09960 1-611): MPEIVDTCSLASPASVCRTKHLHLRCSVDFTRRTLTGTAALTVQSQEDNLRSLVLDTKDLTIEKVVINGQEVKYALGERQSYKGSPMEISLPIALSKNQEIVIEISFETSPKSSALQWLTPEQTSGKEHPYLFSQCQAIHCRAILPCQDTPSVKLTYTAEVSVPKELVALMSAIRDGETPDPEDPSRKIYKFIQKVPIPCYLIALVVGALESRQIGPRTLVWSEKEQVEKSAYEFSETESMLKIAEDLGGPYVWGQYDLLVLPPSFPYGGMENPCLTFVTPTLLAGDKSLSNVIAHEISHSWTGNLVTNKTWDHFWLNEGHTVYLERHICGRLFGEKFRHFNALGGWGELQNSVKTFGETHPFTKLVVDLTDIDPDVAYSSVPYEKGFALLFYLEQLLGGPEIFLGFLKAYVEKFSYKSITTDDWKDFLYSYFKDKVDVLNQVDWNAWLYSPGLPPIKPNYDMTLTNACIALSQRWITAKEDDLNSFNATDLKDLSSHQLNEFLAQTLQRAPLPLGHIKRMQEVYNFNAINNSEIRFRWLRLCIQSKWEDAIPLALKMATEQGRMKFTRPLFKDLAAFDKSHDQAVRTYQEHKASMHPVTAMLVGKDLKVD
# Experiment: Recombinant Human LTA4 Hydrolase Assay for LTA4 Hydrolase Inhibitor Activity
# Type: biochemical
# Settings: average of results obtained; LTB4 quantified by enzyme-linked immunoassay
# Summary of the method: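 Baculovirus/Sf-9-expressed human LTA4 hydrolase (36 ng) preincubated with compound 10 min at rt in 0.1 M potassium phosphate pH 7.4, 5 mg/mL fatty-acid-free BSA. Reaction started with 9 ng LTA4 free acid, run 10 min at rt; LTB4 measured by enzyme immunoassay, IC50 from 4-parameter fit.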
row,SMILES,Ki [nM]
1,"NC(=O)N[C@H]1C[C@H]2CC[C@@H](C1)N2CCc1ccc(Oc2nc3cccc(F)c3s2)cc1 [Example 190, meso-endo-(8-{2-[4-(7-Fluoro-benzothiazol-2-yloxy)-phenyl]-ethyl}-8-aza-bicyclo[3.2.1]oct-3-yl)-urea]",16
2,"CS(=O)(=O)N1CC2CCC(C1)N2CCOc1ccc(Oc2nc3ccc(Cl)cc3s2)cc1 [Example 169, meso-6-Chloro-2-{4-[2-(3-methanesulfonyl-3,8-diaza-bicyclo[3.2.1]oct-8-yl)-ethoxy]-phenoxy}-benzothiazole]",693
3,CC(=O)N1CC2CCC(C1)N2CCOc1ccc(Oc2nc3c(Cl)cccc3s2)cc1 [Example 247],167
4,"Cc1ccc2nc(Oc3ccc(CN4[C@@H]5CC[C@H]4C[C@H](NS(C)(=O)=O)C5)cc3)sc2c1 [Example 200, meso-exo-N-{8-[4-(6-Methyl-benzothiazol-2-yloxy)-benzyl]-8-aza-bicyclo[3.2.1]oct-3-yl}-methanesulfonamide]",65
5,"CC(=O)N[C@H]1C[C@H]2CC[C@@H](C1)N2Cc1ccc(Oc2nc3c(F)cccc3s2)cc1F [Example 160, meso-endo-N-{8-[2-Fluoro-4-(4-fluoro-benzothiazol-2-yloxy)-benzyl]-8-aza-bicyclo[3.2.1]oct-3-yl}-acetamide]",1
6,"NC(=O)N[C@H]1C[C@H]2CC[C@@H](C1)N2CCOc1ccc(Oc2nc3c(F)cccc3s2)cc1 [Example 262, meso-endo-(8-{2-[4-(4-Fluoro-benzothiazole-2-yloxy)-phenoxy]-ethyl}-8-aza-bicyclo[3.2.1]oct-3-yl)-urea]",12
7,"CS(=O)(=O)N[C@@H]1C[C@H]2CC[C@@H](C1)N2Cc1ccc(Oc2nc3c(F)cccc3s2)cc1 [Example 188, meso-exo-N-{8-[4-(4-Fluoro-benzothiazol-2-yloxy)-benzyl]-8-aza-bicyclo[3.2.1]oct-3-yl}-methanesulfonamide]",4
8,"NC(=O)N[C@@H]1C[C@H]2CC[C@@H](C1)N2CCc1ccc(Oc2nc3ccc(F)cc3s2)cc1 [Example 179, meso-exo-(8-{2-[4-(6-Fluoro-benzothiazol-2-yloxy)-phenyl]-ethyl}-8-aza-bicyclo[3.2.1]oct-3-yl)-urea]",47
9,"NC(=O)N1[C@@H]2CC[C@H]1C[C@H](NCCOc1ccc(Oc3nc4ccc(F)cc4s3)cc1)C2 [Example 267, meso-exo-3-{2-[4.(6-Fluoro-benzothiazol-2-yloxy)-phenoxy]-ethylamino}-8-aza-bicyclo[3.2.1]octane-8-carboxylic acid amide]",296
10,"CC(=O)N1[C@@H]2CC[C@H]1C[C@H](NCc1ccc(Oc3nc4ccc(C)cc4s3)cc1)C2 [Example 184, meso-exo-1-{3-[4-(6-Methyl-benzothiazol-2-yloxy)-benzylamino]-8-aza-bicyclo[3.2.1]oct-8-yl}-ethanone]",406
11,"NC(=O)N1[C@@H]2CC[C@H]1C[C@H](NCCc1ccc(Oc3nc4c(F)cccc4s3)cc1)C2 [Example 212, meso-exo-3-{2-[4-(4-Fluoro-benzothiazol-2-yloxy)-phenyl]-ethylamino}-8-aza-bicyclo[3.2.1]octane-8-carboxylic acid amide]",248
12,"CS(=O)(=O)N[C@H]1C[C@H]2CC[C@@H](C1)N2Cc1ccc(Oc2nc3c(Cl)cccc3s2)cc1 [Example 167, meso-endo-N-{8-[4-(4-Chloro-benzothiazol-2-yloxy)-benzyl]-8-aza-bicyclo[3.2.1]oct-3-yl}-methanesulfonamide]",33
13,"NC(=O)N1[C@@H]2CC[C@H]1C[C@@H](NCc1ccc(Oc3nc4cccc(F)c4s3)cc1)C2 [Example 226, meso-endo-3-[4-(7-Fluoro-benzothiazol-2-yloxy)-benzylamino]-8-aza-bicyclo[3.2.1]octane-8-carboxylic acid amide]",90
14,"NC(=O)N[C@H]1C[C@H]2CC[C@@H](C1)N2Cc1ccc(Oc2nc3cc(Cl)ccc3s2)cc1 [Example 259, meso-endo-{8-[4-(5-Chloro-benzothiazol-2-yloxy)-benzyl]-8-aza-bicyclo[3.2.1]oct-3-yl}-urea]",58

# Now from value to molecule:
row,Ki [nM],SMILES
1,97,"c1ccc2sc(Oc3ccc(CN4CCC5CNCC54)cc3)nc2c1 (stereo not shown) [Example 82, 2-[4-(Hexahydro-pyrrolo[3,4-b]pyrrol-1-ylmethyl)-phenoxy]-benzothiazole hydrochloride]"
2,8,"CC(C)(O)C(=O)N1C[C@@H]2C[C@H]1CN2CCOc1ccc(Oc2nc3ccccc3s2)cc1 [Example 25, (S,S)-1-(5-{2-[4-(Benzothiazol-2-yloxy)-phenoxy]-ethyl}-2,5-diaza-bicyclo[2.2.1]hept-2-yl)-2-hydroxy-2-methyl-propan-1-one]"
3,32,"CS(=O)(=O)N1C[C@H]2C[C@@H]1CN2Cc1ccc(Oc2nc3ccccc3s2)cc1 [Example 46, (R,R)-2-[4-(5-Methanesulfonyl-2,5-diaza-bicyclo[2.2.1]hept-2-ylmethyl)-phenoxy]-benzothiazole]"
4,612,"Cc1ccc2nc(Oc3ccc(CCN4C[C@H]5C[C@@H]4CN5S(C)(=O)=O)cc3)sc2c1 [Example 193, (R,R)-2-{4-[2-(5-Methanesulfonyl-2,5-diaza-bicyclo[2.2.1]hept-2-yl)-ethyl]-phenoxy}-6-methyl-benzothiazole]"
5,9,"CC(C)(C)OC(=O)NCC(=O)N1C[C@@H]2C[C@H]1CN2Cc1ccc(Oc2nc3ccccc3s2)cc1 [Example 14, (S,S)-(2-{5-[4-(Benzothiazol-2-yloxy)-benzyl]-2,5-diaza-bicyclo[2.2.1]hept-2-yl}-2-oxo-ethyl)-carbamic acid tert-butyl ester]"
6,59,"CC(=O)N1C[C@@H]2C[C@H]1CN2Cc1ccc(Oc2nc3ccccc3s2)cc1F [Example 79, (S,S)-1-{5-[4-(Benzothiazol-2-yloxy)-2-fluoro-benzyl]-2,5-diaza-bicyclo[2.2.1]hept-2-yl}-ethanone]"
7,281,"CS(=O)(=O)N1C[C@H]2C[C@@H]1CN2CCc1ccc(Oc2nc3c(F)cccc3s2)cc1 [Example 241, (R,R)-4-Fluoro-2-{4-[2-(5-methanesulfonyl-2,5-diaza-bicyclo[2.2.1]hept-2-yl)-ethyl]-phenoxy}-benzothiazole]"
8,2,"NC(=O)N[C@H]1C[C@H]2CC[C@@H](C1)N2Cc1ccc(Oc2nc3ccccc3s2)cc1 [Example 60, meso-endo-{8-[4-(Benzothiazol-2-yloxy)-benzyl]-8-aza-bicyclo[3.2.1]oct-3-yl}-urea]"
9,651,"CS(=O)(=O)N1C[C@@H]2C[C@H]1CN2CCc1ccc(Oc2nc3ccc(Cl)cc3s2)cc1 [Example 238, (S,S)-6-Chloro-2-{4-[2-(5-methanesulfonyl-2,5-diaza-bicyclo[2.2.1]hept-2-yl)-ethyl]-phenoxy}-benzothiazole]"
10,2040,"CS(=O)(=O)N1CC2CCC(C1)N2CCc1ccc(Oc2nc3c(Cl)cccc3s2)cc1 [Example 281, meso-4-Chloro-2-{4-[2-(3-methanesulfonyl-3,8-diaza-bicyclo[3.2.1]oct-8-yl)-ethyl]-phenoxy}-benzothiazole]"
11,2290,"O=S(=O)(c1cccs1)N1CC2CN(Cc3ccc(Oc4nc5ccccc5s4)cc3)CC2C1 (stereo not shown) [Example 124, 2-{4-[5-(Thiophene-2-sulfonyl)-hexahydro-pyrrolo[3,4-c]pyrrol-2-ylmethyl]-phenoxy}-benzothiazole]"
12,163,"CS(=O)(=O)N1CC2CCC(C1)N2CCc1ccc(Oc2nc3cc(F)ccc3s2)cc1 [Example 210, meso-5-Fluoro-2-{4-[2-(3-methanesulfonyl-3,8-diaza-bicyclo[3.2.1]oct-8-yl)-ethyl]-phenoxy}-benzothiazole]"
13,32,"CS(=O)(=O)N1C[C@@H]2C[C@H]1CN2CCOc1ccc(Oc2nc3c(F)cccc3s2)cc1 [Example 191, (S,S)-4-Fluoro-2-{4-[2-(5-methanesulfonyl-2,5-diaza-bicyclo[2.2.1]hept-2-yl)-ethoxy]-phenoxy}-benzothiazole]"
14,169,"CS(=O)(=O)N1C[C@H]2C[C@@H]1CN2Cc1ccc(Oc2nc3ccc(Cl)cc3s2)cc1 [Example 236, (R,R)-6-Chloro-2-[4-(5-methanesulfonyl-2,5-diaza-bicyclo[2.2.1]hept-2-ylmethyl)-phenoxy]-benzothiazole]"
15,10,"COCC(=O)N1C[C@@H]2C[C@H]1CN2CCOc1ccc(Oc2nc3ccccc3s2)cc1 [Example 22, (S,S)-1-(5-{2-[4-(Benzothiazol-2-yloxy)-phenoxy]-ethyl}-2,5-diaza-bicyclo[2.2.1]hept-2-yl)-2-methoxy-ethanone]"
16,0.2,"CS(=O)(=O)N[C@H]1C[C@H]2CC[C@@H](C1)N2Cc1ccc(Oc2nc3ccccc3s2)cc1 [Example 58, meso-endo-N-{8-[4-(Benzothiazol-2-yloxy)-benzyl]-8-aza-bicyclo[3.2.1]oct-3-yl}-methanesulfonamide]"
17,18,"NC(=O)N1C[C@@H]2CCN(Cc3ccc(Oc4nc5ccccc5s4)cc3)[C@@H]2C1 [Example 137, (S,S)-1-[4-(Benzothiazol-2-yloxy)-benzyl]-hexahydro-pyrrolo[3,4-b]pyrrole-5-carboxylic acid amide]"
